Measurements reported in ChEMBL document CHEMBL5614398, “A comprehensive review of new small molecule drugs approved by the FDA in 2022: Advance and prospect” (Eur J Med Chem, 2024).

How the values were obtained:
[1] = Half life in human; assay type: ADME
[2] = Activation of Myosin ATPase activity in bovine Cardio-myofibril; set-up: species or system Bos taurus
[3] = target: Structural capsid protein (Human immunodeficiency virus 1, UniProt Q76129); assay: Inhibition of HIV-1 NL4-3 monomeric capsid protein
Chain of Structural capsid protein (Q76129 whole entry): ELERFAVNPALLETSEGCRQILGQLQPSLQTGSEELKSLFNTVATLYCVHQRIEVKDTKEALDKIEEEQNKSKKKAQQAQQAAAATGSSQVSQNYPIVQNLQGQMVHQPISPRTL

[4] = target: Tyrosine-protein kinase JAK2 (Homo sapiens, UniProt O60674); assay: Inhibition of N-terminal human recombinant JAK2 using poly(Glu,Ala,Tyr) as substrate incubated for 2 hrs in presence of ATP by luminescence method
Chain of Tyrosine-protein kinase JAK2 (O60674 whole entry): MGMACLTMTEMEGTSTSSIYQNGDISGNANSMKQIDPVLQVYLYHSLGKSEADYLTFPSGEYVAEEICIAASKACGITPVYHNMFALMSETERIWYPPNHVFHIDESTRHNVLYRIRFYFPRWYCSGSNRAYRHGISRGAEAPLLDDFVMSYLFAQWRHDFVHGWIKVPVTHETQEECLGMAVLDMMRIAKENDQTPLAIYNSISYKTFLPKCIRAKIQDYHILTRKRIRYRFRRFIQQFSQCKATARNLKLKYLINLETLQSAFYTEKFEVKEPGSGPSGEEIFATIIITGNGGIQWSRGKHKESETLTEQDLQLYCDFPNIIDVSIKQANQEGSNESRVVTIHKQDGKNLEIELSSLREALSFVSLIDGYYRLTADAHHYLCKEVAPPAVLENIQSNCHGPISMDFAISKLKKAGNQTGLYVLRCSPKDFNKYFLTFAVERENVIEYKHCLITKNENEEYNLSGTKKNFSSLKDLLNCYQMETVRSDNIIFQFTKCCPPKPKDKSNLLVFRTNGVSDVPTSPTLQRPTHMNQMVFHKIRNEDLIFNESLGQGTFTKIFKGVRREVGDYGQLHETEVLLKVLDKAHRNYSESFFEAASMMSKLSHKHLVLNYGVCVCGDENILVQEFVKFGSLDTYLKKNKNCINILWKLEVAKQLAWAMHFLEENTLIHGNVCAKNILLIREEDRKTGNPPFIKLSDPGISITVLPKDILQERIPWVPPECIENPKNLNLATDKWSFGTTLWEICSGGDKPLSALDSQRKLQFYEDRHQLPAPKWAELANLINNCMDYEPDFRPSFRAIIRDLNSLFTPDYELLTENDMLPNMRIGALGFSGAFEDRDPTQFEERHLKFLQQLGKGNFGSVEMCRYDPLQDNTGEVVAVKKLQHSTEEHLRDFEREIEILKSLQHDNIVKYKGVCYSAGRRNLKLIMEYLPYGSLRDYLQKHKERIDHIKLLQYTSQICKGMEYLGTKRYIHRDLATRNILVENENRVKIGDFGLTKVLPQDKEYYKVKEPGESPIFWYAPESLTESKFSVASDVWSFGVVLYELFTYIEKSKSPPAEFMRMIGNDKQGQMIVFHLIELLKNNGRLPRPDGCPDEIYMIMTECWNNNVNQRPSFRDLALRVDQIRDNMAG

[5] = target: T1, Receptor-type tyrosine-protein kinase FLT3 (Homo sapiens, UniProt P36888); assay: Inhibition of human FLT3 (unknown origin) using poly(Glu,Tyr) as substrate incubated for 2 hrs in presence of ATP by luminescence method
T1 sequence (P36888 whole entry): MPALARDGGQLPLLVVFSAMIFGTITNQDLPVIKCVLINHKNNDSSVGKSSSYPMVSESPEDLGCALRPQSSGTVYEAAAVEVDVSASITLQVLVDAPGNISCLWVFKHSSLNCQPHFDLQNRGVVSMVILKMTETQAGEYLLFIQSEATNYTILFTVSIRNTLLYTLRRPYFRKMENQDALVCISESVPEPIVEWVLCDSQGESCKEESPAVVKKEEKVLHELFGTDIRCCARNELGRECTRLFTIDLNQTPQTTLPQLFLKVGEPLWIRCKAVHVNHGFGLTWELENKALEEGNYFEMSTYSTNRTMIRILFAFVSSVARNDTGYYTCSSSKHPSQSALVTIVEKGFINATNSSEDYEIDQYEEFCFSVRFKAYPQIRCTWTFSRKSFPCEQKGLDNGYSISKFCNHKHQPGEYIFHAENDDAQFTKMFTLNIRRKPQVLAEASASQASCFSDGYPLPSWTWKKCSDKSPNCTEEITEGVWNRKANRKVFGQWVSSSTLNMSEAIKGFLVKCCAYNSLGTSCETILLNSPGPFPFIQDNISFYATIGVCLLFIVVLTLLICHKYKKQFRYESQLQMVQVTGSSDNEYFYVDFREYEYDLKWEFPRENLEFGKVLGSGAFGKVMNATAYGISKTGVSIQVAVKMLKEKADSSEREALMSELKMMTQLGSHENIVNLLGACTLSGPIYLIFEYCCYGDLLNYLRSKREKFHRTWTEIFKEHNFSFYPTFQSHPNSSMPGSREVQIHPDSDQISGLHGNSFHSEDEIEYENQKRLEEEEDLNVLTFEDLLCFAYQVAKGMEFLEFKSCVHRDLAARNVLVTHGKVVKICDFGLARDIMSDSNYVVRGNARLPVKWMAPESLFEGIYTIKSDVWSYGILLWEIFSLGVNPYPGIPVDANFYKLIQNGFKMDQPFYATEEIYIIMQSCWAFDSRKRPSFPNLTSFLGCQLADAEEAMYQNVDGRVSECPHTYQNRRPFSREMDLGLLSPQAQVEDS

[6] = target: GABA-A receptor; anion channel; assay: Binding affinity to GABAA receptor (unknown origin) assessed as inhibition constant; assay type: protein-complex assay, Homo sapiens
[7] = target: Prostaglandin E2 receptor EP2 subtype (Homo sapiens, UniProt P43116); assay: Agonist activity at human EP2 receptor expressed in HEK293 cells; assay type: functional, cell-based
Chain of Prostaglandin E2 receptor EP2 subtype (P43116 whole entry): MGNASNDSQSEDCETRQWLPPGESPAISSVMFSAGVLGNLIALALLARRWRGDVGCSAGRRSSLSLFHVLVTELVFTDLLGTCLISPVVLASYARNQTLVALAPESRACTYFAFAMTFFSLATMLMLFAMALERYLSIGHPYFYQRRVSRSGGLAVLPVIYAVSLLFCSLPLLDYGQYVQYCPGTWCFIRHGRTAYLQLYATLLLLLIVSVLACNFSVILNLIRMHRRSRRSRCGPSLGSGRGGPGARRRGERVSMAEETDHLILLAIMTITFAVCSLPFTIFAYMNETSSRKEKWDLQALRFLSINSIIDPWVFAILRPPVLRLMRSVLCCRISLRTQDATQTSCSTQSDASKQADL

[8] = target: Lanosterol 14-alpha demethylase (Candida albicans (strain SC5314 / ATCC MYA-2876) (Yeast), UniProt P10613); assay: Binding affinity to Candida albicans SC5314 CYP51 assessed as dissociation constant
Chain of Lanosterol 14-alpha demethylase (P10613 whole entry): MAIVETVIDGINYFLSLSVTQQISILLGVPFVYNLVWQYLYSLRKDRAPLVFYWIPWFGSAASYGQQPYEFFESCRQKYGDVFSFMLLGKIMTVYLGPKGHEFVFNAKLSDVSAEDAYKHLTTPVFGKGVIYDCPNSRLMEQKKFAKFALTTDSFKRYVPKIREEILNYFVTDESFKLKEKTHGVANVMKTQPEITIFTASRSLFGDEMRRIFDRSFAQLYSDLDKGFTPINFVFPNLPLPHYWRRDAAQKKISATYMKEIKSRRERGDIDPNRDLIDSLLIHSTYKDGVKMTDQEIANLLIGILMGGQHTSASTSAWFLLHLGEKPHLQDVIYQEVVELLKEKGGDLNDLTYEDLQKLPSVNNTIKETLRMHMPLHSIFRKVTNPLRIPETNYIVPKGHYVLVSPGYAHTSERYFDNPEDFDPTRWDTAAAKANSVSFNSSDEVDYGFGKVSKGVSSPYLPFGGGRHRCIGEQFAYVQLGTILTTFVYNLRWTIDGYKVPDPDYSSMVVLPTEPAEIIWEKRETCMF

## Cc1[nH]c2ccccc2c1CC(=O)N[C@@H](Cc1ccccc1)C(=O)N(C)c1ccccc1
[1]
  half-life: 3 min

## CC(C)n1c(=O)cc(N[C@@H](C)c2ccccc2)[nH]c1=O
[2]
  EC50: 711 nM

## CC(C)(C#Cc1ccc(-c2ccc(Cl)c3c(NS(C)(=O)=O)nn(CC(F)(F)F)c23)c([C@H](Cc2cc(F)cc(F)c2)NC(=O)Cn2nc(C(F)(F)F)c3c2C(F)(F)[C@@H]2C[C@H]32)n1)S(C)(=O)=O
[3]
  EC50: 0.05 nM

## Cn1nc(N)c2cccc(-c3cccnc3[C@H](Cc3cc(F)cc(F)c3)NC(=O)Cn3nc(C(F)(F)F)c4c3C(F)(F)[C@@H]3C[C@H]43)c21
[3]
  EC50: 19 nM

## NC(=O)c1cccc(-c2cccnc2[C@H](Cc2cc(F)cc(F)c2)NC(=O)Cn2nc(C(F)(F)F)c3c2C(F)(F)[C@@H]2C[C@H]32)c1
[3]
  EC50: 167 nM

## NC(=O)c1cccc(-c2cccnc2[C@H](Cc2cc(F)cc(F)c2)NC(=O)Cc2c[nH]c3ccc(O)cc23)c1
[3]
  EC50: 150 nM

## Cn1nc(NS(C)(=O)=O)c2cccc(-c3cccnc3[C@H](Cc3cc(F)cc(F)c3)NC(=O)Cn3nc(C(F)(F)F)c4c3C(F)(F)[C@@H]3C[C@H]43)c21
[3]
  EC50: 12 nM

## COc1cc(-c2ccnc(Nc3cccc(N(C)C)c3)n2)ccc1O
[4]
  IC50: 23 nM
[5]
  IC50: 22 nM

## Cn1nc(NS(C)(=O)=O)c2c(Cl)ccc(-c3ccc(C#CC(C)(C)S(C)(=O)=O)nc3[C@H](Cc3cc(F)cc(F)c3)NC(=O)Cn3nc(C(F)(F)F)c4c3C(F)(F)[C@@H]3C[C@H]43)c21
[3]
  EC50: 0.2 nM

## COc1ccc(N(C)C(=O)[C@H](Cc2ccccc2)NC(=O)Cc2c[nH]c3ccc(O)cc23)cc1
[3]
  EC50: 52 nM

## CC(=O)[C@H]1CC[C@H]2[C@@H]3CC[C@H]4C[C@](C)(O)CC[C@]4(C)[C@H]3CC[C@]12C [GANAXOLONE]
[6]
  Ki: 790 nM

## CC(C)OC(=O)CNc1cccc(CN(Cc2ccc(-n3cccn3)cc2)S(=O)(=O)c2cccnc2)n1 [OMIDENEPAG ISOPROPYL]
[7]
  EC50: 1.1 nM

## O[C@@](Cn1cnnn1)(c1ccc(F)cc1F)C(F)(F)c1ccc(-c2ccc(OCC(F)(F)F)cc2)cn1 [OTESECONAZOLE]
[8]
  Kd: ≤ 39 nM
